Nine compounds from patent US5488106A can be followed below.

Test [1] deals with β-lactamase Tal 3636 CcrA (Bacteroides fragilis, UniProt P25910). The experiment in a line: biochemical. It counts as biochemical. The method, then:
Representative compounds of the present invention are also tested to determine inhibition of an isolated metallo enzyme Group 3, the β-lactamase Tal 3636 CcrA. […] In the CI assay, enzyme is added last to a mixture of inhibitor and buffer. In the TDI assay, nitrocefin is added last to a mixture of enzyme and inhibitor that had been incubating for approximately 7 minutes.

Another test concerns the target metallo-β-lactamase (Bacteroides fragilis, UniProt P25910). Nature of the test: Long term inactivation of the metallo-β-lactamase, residual activity on nitrocefin. It counts as biochemical. The settings on record: for remaining activity at 8 µM: 42 s, 8 μM inhibitor, after 0.7 minutes, read-out: control activity of metallo-β-lactamase remaining. Here is the method: To test for long term inactivation of the metallo-β-lactamase, the inhibitors are mixed with enzyme and incubated overnight. Enzyme activity is tested for at periodic intervals by diluting the enzyme-inhibitor mixture into nitrocefin and comparing the enzymatic activity against that of an enzyme incubated only in assay broth. […].

The target of a further test is CcrA (Metallo) (Bacteroides fragilis, UniProt P25910). The experiment in a line: Spectrophotometric inhibition with 10 minute preincubation, nitrocefin substrate. The following applies: for IC50: 10 minute preincubation, 25° C. The test is classed as biochemical.
The target of a further test is PC1 (Penase) (Staphylococcus aureus, UniProt P00807). The description is as above. The test is classed as biochemical.
The next test concerns the target TEM-2 (Bd Spectrum) (Escherichia coli, UniProt P62593, Q37K). It counts as biochemical. The settings on record: Table III.
A further test addresses P99 (Cephase) (Enterobacter cloacae, UniProt P05364). Nature of the test: Spectrophotometric inhibition with 10 minute preincubation, nitrocefin substrate. The test is classed as biochemical. The following applies: for IC50: 10 minute preincubation, 25° C.
In test [2] the test system is E. coli strains containing β-lactamases. Nature of the test: Microbiological testing with piperacillin, β-lactamase-containing strains (summary in words). The following applies: β-lactamase-producing strains.
The next test relates to E. coli 300. The experiment in a line: MIC of piperacillin, broth serial two-fold dilutions, alone or 1:1 with inhibitor. The following applies: piperacillin alone.
In test [3] the test system is E. coli 300 + P99 (cephase). The description is as above. The following applies: piperacillin alone.
The subject of test [4] is E. coli 300 + CcrA (metallo-enzyme). The test is described as above. The following applies: piperacillin alone.
The next test concerns E. cloacae + P99. The test is described as above. The following applies: piperacillin alone.
In a further test the test system is E. coli + TEM-1. The test is described as above. The following applies: piperacillin alone.
[5] abbreviates: CI: enzyme added last, 0.010M HEPES, pH 7.4, nitrocefin 100 μg/ml, read-out: IC50 CI HEPES.
Where [6] appears, read: CI: enzyme added last, 0.05M phosphate buffer, pH 7.0, nitrocefin 100 μg/ml, read-out: IC50 CI PHOSPHATE
Setting [7] is: TDI: approximately 7 minutes incubation, nitrocefin added last, 0.010M HEPES, pH 7.4, read-out: IC50 TDI HEPES.
Setting [8] is: TDI: approximately 7 minutes incubation, nitrocefin added last, 0.05M phosphate buffer, pH 7.0, read-out: IC50 TDI PHOSPHATE
The mark [9] stands for this setting: TDI: approximately 7 minutes incubation, nitrocefin added last, 0.010M HEPES, pH 7.4, 7 min, read-out: IC50 TDI HEPES.
[10] abbreviates: TDI: approximately 7 minutes incubation, nitrocefin added last, 0.05M phosphate buffer, pH 7.0, 7 min, read-out: IC50 TDI PHOSPHATE
The mark [11] stands for this setting: 10 minute preincubation, 25° C., read-out: IC50 PC1 (Penase).

“Also recorded” adds a separate entry of the source. Where a name gives a salt, the structure may show the parent alone. Read-outs that look alike come from different tables or passages of the source. Where only a bound is given, the exact number is not on record here.

Usually IC50 stands for the concentration needed to halve the response being measured. On to `CCC1=NOC(CC2C(=O)N3C(C(=O)O)C(C)(C)S(=O)(=O)C23)C1` (single isomer, unassigned) [Example 12], for which the IC50 in [1] (setting [5]) is greater than 250 µM; in [1] (setting [6]), greater than 250 µM; in test [1] (setting [7]) it was 77 µM; in [1] (setting [8]) it was 120 µM.
For the compound `CC1(C)[C@H](C(=O)O)N2C(=O)[C@@H](CC3CC(c4ccsc4)=NO3)[C@H]2S1(=O)=O` (single isomer, unassigned) [Example 14, 4-Thia-1-azabicyclo[3.2.0.]heptane-2-carboxylic acid, 6-[[4,5-dihydro-3-(3-thienyl)-5-isoxazolyl]methyl]-3,3-dimethyl-7-oxo-, 4,4-dioxide, sodium salt, [2S-[2α, 5α, 6β(R* or S*)]]-], the IC50 in [1] (setting [5]) turned out to be 48 µM; in test [1] (setting [6]) it was 33 µM; in test [1] (setting [7]) it was 3.5 µM; in test [1] (setting [8]), 9.6 µM.
With `CC1(C)[C@H](C(=O)O)N2C(=O)[C@@H](CC3CC(Br)=NO3)[C@H]2S1(=O)=O` (single isomer, unassigned) [Example 16, 4-Thia-1-azabicyclo[3.2.0]heptane-2-carboxylic acid, 6-[(3-bromo-4,5-dihydro-5-isoxazolyl)methyl]-3,3-dimethyl-7-oxo-, 4,4-dioxide, sodium salt, [2S-[2α,5α,6β(R* or S*)]]-], the IC50 in test [1] (setting [5]) came out at 18 µM; in [1] (setting [6]), 48 µM; in test [1] (setting [7]), 2.4 µM; in test [1] (setting [8]) it was 6 µM.
For `Cc1ccc(C2=NOC(C[C@@H]3C(=O)N4[C@@H](C(=O)O)C(C)(C)S(=O)(=O)[C@H]34)C2)cc1` (stereo partly drawn) [Example 4, 4-Thia-1-azabicyclo[3.2.0]heptane-2-carboxylic acid, 6-[[4,5-dihydro-3-(4-methylphenyl)-5-isoxazolyl]-methyl]-3,3-dimethyl-7-oxo-, sodium salt, 4,4-dioxide, [2R-[2α,5α,6β(R*)]]-], the IC50 in test [1] (setting [5]) came out at 9.7 µM; in [1] (setting [6]), 16 µM; in test [1] (setting [9]), 1.3 µM; in test [1] (setting [10]) it was 2 µM; against CcrA (Metallo), 0.65 µM; on PC1 (Penase) (setting [11]), 0.72 µM. In addition, half-maximal inhibition against P99 (Cephase) (IC50) required 0.0028 µM. Further, the remaining activity at 8 µM at metallo-β-lactamase is 44%. The metalloenzyme activity recovered on metallo-β-lactamase (after overnight incubation) is on record as 71%. Besides, at CcrA (Metallo) (Table III), the “Inhibition of Group 3 metallo-β-lactamases (in words)” value was “inhibited about equally”. The “Inhibition of PC1 Group 2a penicillinase (in words)” value at PC1 (Penase) (Table III) is on record as “inhibited about equally”. Further, at TEM-2 (Bd Spectrum), the “Inhibition of 2b broad spectrum β-lactamase (in words)” value was “inhibited about equally”. The “Inhibition of P99 Group 1 cephalosporinase (in words)” value at P99 (Cephase) (Table III) is given as “very potent inhibitor of the P99 Group 1 cephalosporinase”. The “Microbiological activity / effect on MICs of piperacillin (in words)” value (“Microbiological activity / effect” for short) in test [2] is “lowers the MICs for all the β-lactamases-producing strains; also recorded: more potent in vitro activity against the P99 cephase than the product of Example 10”.
As for `Cc1ccc(C2=NOC(C[C@@H]3C(=O)N4[C@@H](C(=O)O)C(C)(C)S(=O)(=O)[C@H]34)C2)cc1` (stereo partly drawn) [Example 5, 4-Thia-1-azabicyclo[3.2.0.]heptane-2-carboxylic acid, 6-[[4,5-dihydro-3-(4-methylphenyl)-5-isoxazolyl]methyl]-3,3-dimethyl-7-oxo-, sodium salt, 4,4-dioxide, [2R-[2α,5α,6β(S*)]]-], the half-maximal inhibitory concentration (IC50) in [1] (setting [5]) turned out to be 27 µM; in test [1] (setting [6]), 68 µM; in [1] (setting [9]), 2 µM; in test [1] (setting [10]), 6.9 µM.
As to `CC(=O)OC(C1CC(c2ccc(C)cc2)=NO1)[C@@H]1C(=O)N2[C@@H](C(=O)O)C(C)(C)S(=O)(=O)[C@H]12` (stereo partly drawn) [Example 10, 4-Thia-1-azabicyclo[3.2,0]heptane-2-carboxylic acid, 6-[(acetyloxy)[4,5-dihydro-3-(4-methylphenyl)-5-isoxazolyl]methyl]-3,3-dimethyl-7-oxo-, sodium salt, 4,4-dioxide, [2S-(2α, 5α, 6β)]-], the IC50 was determined as 100 µM in [1] (setting [5]); 210 µM in test [1] (setting [6]); 3.9 µM in test [1] (setting [7]); 3.2 µM in test [1] (setting [8]); 16 µM at CcrA (Metallo); 8 µM on PC1 (Penase) (setting [11]). The IC50 against P99 (Cephase) worked out at 2.4 µM. In addition, the remaining activity at 8 µM on metallo-β-lactamase was 45%. This compound also showed an enzyme activity lost at metallo-β-lactamase (after overnight incubation) greater than 99%. Besides, the “Microbiological activity / effect” value in test [2] is recorded as “lowers the MICs of piperacillin for all the E. coli strains containing β-lactamases”.
Take `CCN1CCN(C(=O)N[C@@H](C(=O)N[C@@H]2C(=O)N3[C@@H]2SC(C)(C)[C@@H]3C(=O)O)c2ccccc2)C(=O)C1=O` [Piperacillin, piperacillin]: the “Minimum Inhibitory Concentration of Piperacillin” value in the test on E. coli 300 was 1 µg/mL; in [3], 16 µg/mL; in test [4], 4 µg/mL; with E. cloacae + P99, 128 µg/mL; in the test on E. coli + TEM-1, greater than 1024 µg/mL. The “Microbiological activity / effect” value in test [2] is given as “decreased microbiological activity (increased MICs) in E. coli strains that had β-lactamases introduced into them”.
Take `CC1(C)[C@H](C(=O)O)N2C(=O)C[C@H]2S1(=O)=O` [Sulbactam, sulbactam, reference compound]: the midpoint of inhibition on PC1 (Penase), the IC50, lay at 0.08 µM.
On the same count and under the same terms, the same measure for `C[C@]1(Cn2ccnn2)[C@H](C(=O)O)N2C(=O)C[C@H]2S1(=O)=O` [Tazobactam, tazobactam, reference compound]: 0.032 µM.
